The test system of data set [1] is modified Escherichia coli strain. Particulars: oleyl alcohol as the organic extractant, Example 6 of US 2009/0305370; cited from earlier work.
Data set [2] in a line: Secondary screen for solvent biocompatibility (shake flask; Cellometer viability, glucose, isobutanol). Conditions: yeast (isobutanologen).
Data set [3] concerns isobutanologen. The description is as above. Conditions: 30° C.; for % Viability: relative to oleyl alcohol.
For data set [4], the system named is isobutanologen. Put plainly: Automated primary screen for solvent biocompatibility (96 well plate, propidium iodide dead-cell fluorescence). The format is cell-based.
Data set [5] has as its system isobutanologen.
For data set [6], the system named is isobutanologen. Put plainly: Tertiary screen for solvent biocompatibility (growth of isobutanologen in rich media with solvent, time course). Type of data set: cell-based. Conditions: for isobutanol production: FIG. 11, versus oleyl alcohol control; for glucose consumption: FIG. 12, versus oleyl alcohol control; for ethanol consumption: FIG. 13, versus oleyl alcohol control.

For data set [7], the system named is isobutanologen. Put plainly: Three step screening process, overall biocompatibility call.
The mark [8] stands for this setting: propidium iodide signal, 1 h exposure, 1:1 aq:org, room temperature.

Where two headings read alike, the source gives them in different places.

Usually viability stands for a read-out of living cells in per cent, often relative to untreated cells. On to `CCCCCCCC/C=C\CCCCCCCCO` [oleyl alcohol, reference compound], for which the “effective titer for isobutanol” value in data set [1] is 37 g/L. In addition, in data set [2], the viability at 4 h came out at 100%, the viability at 5 h came out at 100%, the viability at 25 h turned out to be 100% and the viability at 30 h was found to be 100%. Further, in data set [3] (4 Hours), the “Glucose” value is 5.7 g/L and the “iBuOH” value was 1.8 g/L. In addition, in data set [3] (25 Hours), the “Glucose” value is given as 0.0 g/L and the “iBuOH” value stood at 2.6 g/L. In data set [3] (30 Hours), the “Glucose” value stood at 0.0 g/L and the “iBuOH” value was 2.2 g/L.

Regarding `CCCCCCOCCCCCC` [di-n-hexyl ether], in data set [2], the viability at 4 h was 106% and the viability at 25 h came to 62%. Moreover, in data set [3] (4 Hours), the “Glucose” value was 8.1 g/L and the “iBuOH” value was 1.1 g/L. Further, in data set [3] (25 Hours), the “Glucose” value was determined as 0.9 g/L and the “iBuOH” value was found to be 1.9 g/L.

With `CCCCCCCCCC` [n-decane], in data set [2], the viability at 4 h came out at 107% and the viability at 25 h amounted to 54%. Further, in data set [3] (4 Hours), the “Glucose” value was 5.8 g/L and the “iBuOH” value was 1.6 g/L. In data set [3] (25 Hours), the “Glucose” value was determined as 0.0 g/L and the “iBuOH” value is reported as 2.3 g/L.

`CC(C)CC(=O)CC(C)C` [2.6-dimethylheptan-4-one]: the “Glucose” value in data set [3] (4 Hours) was 10.9 g/L; in data set [3] (25 Hours), 7.9 g/L. In addition, the entries for the “iBuOH” value in data set [3] (4 Hours) and in data set [3] (25 Hours) were 0.6 g/L and 0.9 g/L, respectively. Further, the “% Viability” value came out at 78% in data set [3] (4 Hours, 1:1) and 26% in data set [3] (25 Hours, 1:1). Moreover, in data set [4] (setting [8]), the “% Dead” value is recorded as 5%.

`CCCCOC(=O)CCC` [n-butyl n-butyrate]: in data set [2], the viability at 4 h was 48% and the viability at 25 h turned out to be 7%. Moreover, in data set [3] (4 Hours), the “Glucose” value stood at 12.4 g/L and the “iBuOH” value is 0.0 g/L. Further, in data set [3] (25 Hours), the “Glucose” value is 11.7 g/L and the “iBuOH” value came out at 0.0 g/L.

`CCCCCCOC(C)=O` [n-hexyl acetate]: in data set [2], the viability at 4 h stood at 18% and the viability at 25 h is 3%. For the same compound, in data set [3] (4 Hours), the “Glucose” value was 12.8 g/L and the “iBuOH” value is on record as 0.0 g/L. Moreover, in data set [3] (25 Hours), the “Glucose” value is listed as 13.0 g/L and the “iBuOH” value is 0.0 g/L.

For `CC(C)CC(C)(C)C` [isooctane], in data set [2], the viability at 4 h was determined as 90% and the viability at 25 h amounted to 31%. Further, in data set [3] (4 Hours), the “Glucose” value is on record as 10.8 g/L and the “iBuOH” value came to 0.5 g/L. Also, in data set [3] (25 Hours), the “Glucose” value came out at 8.5 g/L and the “iBuOH” value was found to be 0.8 g/L.

On to `CCCCCCCCCCCC=O` [dodecanal], for which, in data set [2], the viability at 5 h came out at 78% and the viability at 30 h was 62%. For the same compound, in data set [3] (30 Hours), the “Glucose” value came out at 0.0 g/L and the “iBuOH” value is 0.0 g/L. Besides, in data set [5], the biocompatibility result was “toxic”.

For the compound `CCCCCCCCOCCCCCCCC` [di-n-octyl ether], in data set [2], the viability at 5 h stood at 99% and the viability at 30 h was found to be 99%. In addition, in data set [3] (30 Hours), the “Glucose” value is on record as 0.0 g/L and the “iBuOH” value stood at 1.9 g/L. For the same compound, in data set [6], the isobutanol production entry is “comparable to oleyl alcohol”, the glucose consumption entry is reported as “comparable to oleyl alcohol” and the ethanol consumption entry is reported as “comparable to oleyl alcohol”.

For `CC(C)CC(O)CC(C)C` [2,6-dimethylheptan-4-ol], in data set [2], the viability at 4 h turned out to be 42% and the viability at 25 h was determined as 8%. Besides, in data set [3] (4 Hours), the “Glucose” value was 12.1 g/L and the “iBuOH” value came out at 0.0 g/L. Further, in data set [3] (25 Hours), the “Glucose” value is reported as 11.8 g/L and the “iBuOH” value is 0.0 g/L.

On to `C1CCC2CCCCC2C1` (stereo not drawn) [decalin], for which, in data set [2], the viability at 4 h was determined as 76% and the viability at 25 h was 36%. For the same compound, in data set [3] (4 Hours), the “Glucose” value worked out at 11.2 g/L and the “iBuOH” value was 0.4 g/L. Moreover, in data set [3] (25 Hours), the “Glucose” value came to 10.3 g/L and the “iBuOH” value amounted to 0.5 g/L.

`COC(C)(C)C` [MTBE]: in data set [3] (4 Hours), the “Glucose” value is recorded as 12.7 g/L and the “iBuOH” value is recorded as 0.0 g/L. In data set [3] (25 Hours), the “Glucose” value is listed as 12.9 g/L and the “iBuOH” value came to 0.2 g/L. Besides, the “% Dead” value in data set [4] worked out at 19%.

Regarding `CCCCOC(C)=O` [n-butyl acetate], in data set [2], the viability at 5 h was found to be 46% and the viability at 30 h came out at 35%. Moreover, in data set [3] (30 Hours), the “Glucose” value came to 16.6 g/L and the “iBuOH” value was 0.0 g/L.

Take `CCCCCCCCCCCC` [dodecane]: in data set [7], the biocompatibility entry is “biocompatible”. Also, in data set [2], the viability at 5 h came out at 99% and the viability at 30 h was 99%. Further, in data set [3] (30 Hours), the “Glucose” value is recorded as 0.0 g/L and the “iBuOH” value is 1.9 g/L. In data set [6], the isobutanol production result is reported as “comparable to oleyl alcohol”, the glucose consumption result is recorded as “comparable to oleyl alcohol” and the ethanol consumption result is listed as “comparable to oleyl alcohol”.

On to `CCCCC(CC)COCCO` (stereo not drawn) [2-ethylhexylglycol ether], for which the “% Dead” value in data set [4] (setting [8]) came to 79%.

Take `CCCCC(CC)CO` (stereo not drawn) [2-ethyl-1-hexanol, reference compound]: in data set [2], the viability at 4 h came out at 14%, the viability at 5 h amounted to 58%, the viability at 25 h came out at 6% and the viability at 30 h was determined as 47%. Besides, in data set [3] (4 Hours), the “Glucose” value is 13.1 g/L and the “iBuOH” value is on record as 0.0 g/L. Also, in data set [3] (25 Hours), the “Glucose” value is 13.7 g/L and the “iBuOH” value was found to be 0.0 g/L. In addition, in data set [3] (30 Hours), the “Glucose” value is reported as 16.8 g/L and the “iBuOH” value turned out to be 0.0 g/L.

Consider `CCCCCCCCCCCCO` [dodecanol], for which the biocompatibility result in data set [7] is “toxic”.

For the compound `CCCCOCCOCCCC` [1,2-dibutoxyethane], in data set [2], the viability at 4 h turned out to be 63% and the viability at 25 h was found to be 8%. For the same compound, in data set [3] (4 Hours), the “Glucose” value turned out to be 11.9 g/L and the “iBuOH” value is 0.4 g/L. Besides, in data set [3] (25 Hours), the “Glucose” value was 10.7 g/L and the “iBuOH” value is reported as 0.4 g/L.

On to `CCCCC(CC)COC(C)=O` (stereo not drawn) [2-ethyl hexyl acetate], for which the “Glucose” value in data set [3] (4 Hours) is given as 10.5 g/L; in data set [3] (25 Hours) it was 7.1 g/L. Also, the “iBuOH” value in data set [3] (4 Hours) is 0.6 g/L; in data set [3] (25 Hours), 1.2 g/L. For the same compound, the “% Viability” value in data set [3] (4 Hours, 1:1) is 96%; in data set [3] (25 Hours, 1:1), 42%. Moreover, in data set [4] (setting [8]), the “% Dead” value is recorded as 3%.

As to `Cc1cc(C)cc(C)c1` [mesitylene], in data set [2], the viability at 4 h was 64% and the viability at 25 h was 17%. In data set [3] (4 Hours), the “Glucose” value amounted to 12.5 g/L and the “iBuOH” value is 0.0 g/L. In data set [3] (25 Hours), the “Glucose” value worked out at 12.1 g/L and the “iBuOH” value is 0.1 g/L.

Regarding trimethylnonanol, in data set [3] (5 Hours), the “% Viability” value is reported as 99%. For the same compound, in data set [3] (30 Hours), the “Glucose” value was 0.0 g/L, the “iBuOH” value is reported as 2.1 g/L and the “% Viability” value was determined as 98%. Moreover, in data set [6], the isobutanol production result is “comparable to oleyl alcohol”, the glucose consumption entry is given as “comparable to oleyl alcohol” and the ethanol consumption entry was “comparable to oleyl alcohol”. In addition, the “% Dead” value in data set [4] (setting [8]) is recorded as 3%. Moreover, in data set [5], the biocompatibility result was “biocompatible”.

Consider `CCCCCCCCCCCC(=O)OC` [methyl laurate], for which, in data set [2], the viability at 4 h was found to be 110% and the viability at 25 h was 94%. Besides, in data set [3] (4 Hours), the “Glucose” value came to 3.9 g/L and the “iBuOH” value came out at 2.1 g/L. Further, in data set [3] (25 Hours), the “Glucose” value was determined as 0.0 g/L and the “iBuOH” value is 1.6 g/L. In data set [6], the isobutanol production entry is “comparable to oleyl alcohol”, the glucose consumption entry was “comparable to oleyl alcohol” and the ethanol consumption result is on record as “comparable to oleyl alcohol”.

For `Cc1cccc2cccnc12` [8-methylquinoline], the viability at 30 h in data set [2] was determined as 47%. In addition, in data set [3] (30 Hours), the “Glucose” value came out at 17.5 g/L and the “iBuOH” value is reported as 0.0 g/L.

Regarding `CCOC(C)(C)C` [ETBE], the figures for the “Glucose” value in data set [3] (4 Hours) and in data set [3] (25 Hours) were 12.5 g/L and 12.8 g/L, respectively. The “iBuOH” value in data set [3] (4 Hours) and in data set [3] (25 Hours) was 0.0 g/L in each case. The “% Viability” value was determined as 16% in data set [3] (4 Hours, 1:1) and 4% in data set [3] (25 Hours, 1:1). Moreover, in data set [4] (setting [8]), the “% Dead” value worked out at 6%.

`CCCCCCCCCCC` [n-undecane]: in data set [2], the viability at 5 h stood at 98% and the viability at 30 h was determined as 100%. Besides, in data set [3] (30 Hours), the “Glucose” value was determined as 0.0 g/L and the “iBuOH” value is given as 1.9 g/L. Also, in data set [6], the isobutanol production result was “comparable to oleyl alcohol”, the glucose consumption result was “comparable to oleyl alcohol” and the ethanol consumption result is recorded as “comparable to oleyl alcohol”.

For the compound primary amyl acetate mixed isomers, the “% Dead” value in data set [4] (setting [8]) worked out at 104%.

The values are drawn from US9517985B2, “Method for producing butanol using extractive fermentation” (Butamax Advanced Biofuels LLC, priority 2013, dated 2016).
